Assay: Stability studies of CBD prepared via Protocol 3 (crude, pure, 2x recrystallized; 5° C., 25° C./60% RH, 40° C./75% RH)
Format: physicochemical

## C=C(C)[C@@H]1CCC(C)=C[C@H]1c1c(O)cc(CCCCC)cc1O [Pure CBD]
25° C./60% RH, 0 month
  Related substances by HPLC (low level): Δ9-Tetrahydrocannabinol: 26 ppm
  Water content in % w/w: <0.05%
25° C./60% RH, 1 month
  Appearance: Off-White Powder
  Assay by HPLC: 99.7%
  Each unspecified impurity: RRT~1.927: RRT~1.927: 0.06%
  Related substances by HPLC (low level): Δ8-Tetrahydrocannabinol: 25 ppm
  Related substances by HPLC (low level): Δ9-Tetrahydrocannabinol: 21 ppm
  Related substances by HPLC: 4-Monobromo-CBD: <0.03% (ND)
  Related substances by HPLC: Olivetol: <0.03% (ND)
  Related substances by HPLC: Sum of impurities, ≥0.05%: 0.06%
  Related substances by HPLC: Δ8-Tetrahydrocannabinol: <0.02% (ND)
  Related substances by HPLC: Δ9-Tetrahydrocannabinol: <0.02% (ND)
25° C./60% RH, 2 months
  Appearance: Off-White Powder
  Assay by HPLC: 100.3%
  Each unspecified impurity: RRT~1.935: RRT~1.935: 0.08%
  Related substances by HPLC (low level): Δ8-Tetrahydrocannabinol: 21 ppm
  Related substances by HPLC (low level): Δ9-Tetrahydrocannabinol: 14 ppm
  Related substances by HPLC: 4-Monobromo-CBD: <0.03% (ND)
  Related substances by HPLC: Olivetol: <0.03% (ND)
  Related substances by HPLC: Sum of impurities, ≥0.05%: 0.08%
  Related substances by HPLC: Δ8-Tetrahydrocannabinol: <0.02% (ND)
  Related substances by HPLC: Δ9-Tetrahydrocannabinol: <0.02% (ND)
25° C./60% RH, 3 months
  Appearance: Off-white
  Assay by HPLC: 98.5%
  Each unspecified impurity: RRT~1.982: RRT~1.982: 0.03%
  Related substances by HPLC (low level): Δ8-Tetrahydrocannabinol: 36 ppm
  Related substances by HPLC (low level): Δ9-Tetrahydrocannabinol: <4 ppm (2 ppm)
  Related substances by HPLC: 4-Monobromo-CBD: <0.03% (ND)
  Related substances by HPLC: Olivetol: <0.03% (ND)
  Related substances by HPLC: Sum of impurities, ≥0.05%: <0.05%
  Related substances by HPLC: Δ8-Tetrahydrocannabinol: <0.02% (ND)
  Related substances by HPLC: Δ9-Tetrahydrocannabinol: <0.02% (ND)
40° C./75% RH, 0 month
  Related substances by HPLC (low level): Δ9-Tetrahydrocannabinol: 26 ppm
  Water content in % w/w: <0.05%
40° C./75% RH, 1 month
  Appearance: Off-White
  Assay by HPLC: 99.5%
  Each unspecified impurity: RRT~1.929: 0.05%
  Related substances by HPLC (low level): Δ8-Tetrahydrocannabinol: 22 ppm
  Related substances by HPLC (low level): Δ9-Tetrahydrocannabinol: 14 ppm
  Related substances by HPLC: 4-Monobromo-CBD: <0.03% (ND)
  Related substances by HPLC: Olivetol: <0.03% (ND)
  Related substances by HPLC: Sum of impurities, ≥0.05%: 0.05%
  Related substances by HPLC: Δ8-Tetrahydrocannabinol: <0.02% (ND)
  Related substances by HPLC: Δ9-Tetrahydrocannabinol: <0.02% (ND)
40° C./75% RH, 2 months
  Appearance: Off-White
  Assay by HPLC: 100.2%
  Each unspecified impurity: RRT~1.932: 0.07%
  Related substances by HPLC (low level): Δ8-Tetrahydrocannabinol: 20 ppm
  Related substances by HPLC (low level): Δ9-Tetrahydrocannabinol: 9 ppm
  Related substances by HPLC: 4-Monobromo-CBD: <0.03% (ND)
  Related substances by HPLC: Olivetol: <0.03% (ND)
  Related substances by HPLC: Sum of impurities, ≥0.05%: 0.07%
  Related substances by HPLC: Δ8-Tetrahydrocannabinol: <0.02% (ND)
  Related substances by HPLC: Δ9-Tetrahydrocannabinol: <0.02% (ND)
40° C./75% RH, 3 months
  Appearance: Off-white
  Assay by HPLC: 98.8%
  Each unspecified impurity: RRT~1.983: 0.03%
  Related substances by HPLC (low level): Δ8-Tetrahydrocannabinol: 30 ppm
  Related substances by HPLC (low level): Δ9-Tetrahydrocannabinol: <4 ppm (ND)
  Related substances by HPLC: 4-Monobromo-CBD: <0.03% (ND)
  Related substances by HPLC: Olivetol: <0.03% (ND)
  Related substances by HPLC: Sum of impurities, ≥0.05%: <0.05%
  Related substances by HPLC: Δ8-Tetrahydrocannabinol: <0.02% (ND)
  Related substances by HPLC: Δ9-Tetrahydrocannabinol: <0.02% (ND)
40° C./75% RH, 5 months
  Appearance: Off-white
  Assay by HPLC: 99.9%
  Each unspecified impurity: RRT~1.918: 0.04%
  Related substances by HPLC (low level): Δ8-Tetrahydrocannabinol: 36 ppm
  Related substances by HPLC (low level): Δ9-Tetrahydrocannabinol: 6 ppm
  Related substances by HPLC: 4-Monobromo-CBD: <0.03% (ND)
  Related substances by HPLC: Olivetol: <0.03% (ND)
  Related substances by HPLC: Sum of impurities, ≥0.05%: <0.05%
  Related substances by HPLC: Δ8-Tetrahydrocannabinol: <0.02% (ND)
  Related substances by HPLC: Δ9-Tetrahydrocannabinol: <0.02% (ND)

## C=C(C)[C@@H]1CCC(C)=C[C@H]1c1c(O)cc(CCCCC)cc1O [Pure CBD (Recrystallized Twice)]
25° C./60% RH, 0 month
  Related substances by HPLC (low level): Δ9-Tetrahydrocannabinol: 11 ppm
  Water content in % w/w: <0.05%
25° C./60% RH, 1 month
  Appearance: Off-White
  Assay by HPLC: 100.2%
  Each unspecified impurity: <0.03% (ND)
  Related substances by HPLC (low level): Δ8-Tetrahydrocannabinol: 9 ppm
  Related substances by HPLC (low level): Δ9-Tetrahydrocannabinol: 6 ppm
  Related substances by HPLC: 4-Monobromo-CBD: <0.03% (ND)
  Related substances by HPLC: Olivetol: <0.03% (ND)
  Related substances by HPLC: Sum of impurities, ≥0.05%: <0.05% (ND)
  Related substances by HPLC: Δ8-Tetrahydrocannabinol: <0.02% (ND)
  Related substances by HPLC: Δ9-Tetrahydrocannabinol: <0.02% (ND)
25° C./60% RH, 2 months
  Appearance: Oft-White
  Assay by HPLC: 99.9%
  Each unspecified impurity: <0.03% (ND)
  Related substances by HPLC (low level): Δ8-Tetrahydrocannabinol: 7 ppm
  Related substances by HPLC (low level): Δ9-Tetrahydrocannabinol: 4 ppm
  Related substances by HPLC: 4-Monobromo-CBD: <0.03% (ND)
  Related substances by HPLC: Olivetol: <0.03% (ND)
  Related substances by HPLC: Sum of impurities, ≥0.05%: <0.05% (ND)
  Related substances by HPLC: Δ8-Tetrahydrocannabinol: <0.02% (ND)
  Related substances by HPLC: Δ9-Tetrahydrocannabinol: <0.02% (ND)
25° C./60% RH, 3 months
  Appearance: White
  Assay by HPLC: 98.4%
  Each unspecified impurity: RRT~1.980: RRT~1.980: 0.03%
  Related substances by HPLC (low level): Δ8-Tetrahydrocannabinol: 13 ppm
  Related substances by HPLC (low level): Δ9-Tetrahydrocannabinol: <4 ppm
  Related substances by HPLC: 4-Monobromo-CBD: <0.03% (ND)
  Related substances by HPLC: Olivetol: <0.03% (ND)
  Related substances by HPLC: Sum of impurities, ≥0.05%: <0.05%
  Related substances by HPLC: Δ8-Tetrahydrocannabinol: <0.02% (ND)
  Related substances by HPLC: Δ9-Tetrahydrocannabinol: <0.02% (ND)
40° C./75% RH, 0 month
  Related substances by HPLC (low level): Δ9-Tetrahydrocannabinol: 11 ppm
  Water content in % w/w: <0.05%
40° C./75% RH, 1 month
  Appearance: Off-White
  Assay by HPLC: 99.5%
  Each unspecified impurity: <0.03% (ND)
  Related substances by HPLC (low level): Δ8-Tetrahydrocannabinol: 6 ppm
  Related substances by HPLC (low level): Δ9-Tetrahydrocannabinol: 4 ppm
  Related substances by HPLC: 4-Monobromo-CBD: <0.03% (ND)
  Related substances by HPLC: Olivetol: <0.03% (ND)
  Related substances by HPLC: Sum of impurities, ≥0.05%: <0.05% (ND)
  Related substances by HPLC: Δ8-Tetrahydrocannabinol: <0.02% (ND)
  Related substances by HPLC: Δ9-Tetrahydrocannabinol: <0.02% (ND)
40° C./75% RH, 2 months
  Appearance: Off-White
  Assay by HPLC: 101.7%
  Each unspecified impurity: <0.03% (ND)
  Related substances by HPLC (low level): Δ8-Tetrahydrocannabinol: 6 ppm
  Related substances by HPLC (low level): Δ9-Tetrahydrocannabinol: <4 ppm (3 ppm)
  Related substances by HPLC: 4-Monobromo-CBD: <0.03% (ND)
  Related substances by HPLC: Olivetol: <0.03% (ND)
  Related substances by HPLC: Sum of impurities, ≥0.05%: <0.05% (ND)
  Related substances by HPLC: Δ8-Tetrahydrocannabinol: <0.02% (ND)
  Related substances by HPLC: Δ9-Tetrahydrocannabinol: <0.02% (ND)
40° C./75% RH, 3 months
  Appearance: Off-white
  Assay by HPLC: 99.4%
  Each unspecified impurity: RRT~1.981: 0.03%
  Related substances by HPLC (low level): Δ8-Tetrahydrocannabinol: 14 ppm
  Related substances by HPLC (low level): Δ9-Tetrahydrocannabinol: <4 ppm
  Related substances by HPLC: 4-Monobromo-CBD: <0.03% (ND)
  Related substances by HPLC: Olivetol: <0.03% (ND)
  Related substances by HPLC: Sum of impurities, ≥0.05%: <0.05%
  Related substances by HPLC: Δ8-Tetrahydrocannabinol: <0.02% (ND)
  Related substances by HPLC: Δ9-Tetrahydrocannabinol: <0.02% (ND)
40° C./75% RH, 5 months
  Appearance: Off-white
  Assay by HPLC: 98.9%
  Each unspecified impurity: RRT~0.956: 0.04%
  Related substances by HPLC (low level): Δ8-Tetrahydrocannabinol: 21 ppm
  Related substances by HPLC (low level): Δ9-Tetrahydrocannabinol: <4 ppm
  Related substances by HPLC: 4-Monobromo-CBD: <0.03% (ND)
  Related substances by HPLC: Olivetol: <0.03% (ND)
  Related substances by HPLC: Sum of impurities, ≥0.05%: <0.05%
  Related substances by HPLC: Δ8-Tetrahydrocannabinol: <0.02% (ND)
  Related substances by HPLC: Δ9-Tetrahydrocannabinol: <0.02% (ND)
